Data on 13 compounds can be found in patent US9179674B2, “Macrocyclic picolinamide compounds with fungicidal activity” (DOW AGROSCIENCES LLC, priority 2013, dated 2015).

Holding throughout (assay type): in vivo
The subject of one assay is Puccinia triticina. Nature of the assay: Wheat Brown Rust fungicidal activity (PUCCRT). Particulars: Puccinia triticina; for pest or weed control at 100 ppm: rate 100 ppm; for pest or weed control at 121.5 g/ha: rate 121.5 g/H. In short, it runs like this: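 Yuma wheat seedlings at first-leaf stage sprayed to run-off (acetone solution in water with 110 ppm Triton X-100) or track-sprayed as EC with 0.1% Trycol 5941; inoculated with P. triticina spores before or after treatment. Overnight dark dew at 22° C., then greenhouse 24° C.; disease severity 0–100% gives percent control vs untreated.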

Assay [1] has as its system Mycosphaerella graminicola; Anamorph: Septoria tritici. As to the kind of experiment: Leaf Blotch of Wheat fungicidal activity (SEPTTR). Particulars: Zymoseptoria tritici; for pest or weed control at 100 ppm: rate 100 ppm; for pest or weed control at 121.5 g/ha: rate 121.5 g/H. In short, it runs like this: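 Acetone solutions diluted with nine volumes of water containing 110 ppm Triton X-100, sprayed to run-off on first-leaf wheat seedlings (Yuma), inoculated with S. tritici before or after treatment. Plants held in dew chambers, then in a 20 °C greenhouse. Disease severity (0–100%) scored when untreated plants fully symptomatic; % control relative to untreated.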

Another assay has as its system Alternaria solani. Nature of the assay: Tomato Early Blight fungicidal activity (ALTESO). Particulars: 24 h, 1 Day Protectant, read-out: Disease Control ALTESO 1DP. The method, then:
Technical grades of materials were dissolved in acetone, which were then mixed with nine volumes of water containing 110 ppm Triton X-100. The fungicide solutions were applied onto wheat seedlings using an automated booth sprayer to run-off. All sprayed plants were allowed to air dry prior to further handling. All fungicides were evaluated using the aforementioned method for their activity vs. all target diseases. Wheat leaf blotch and brown rust activity were also evaluated using track spray applications, in which case the fungicides were formulated as EC formulations, containing 0.1% Trycol 5941 in the spray solutions. Wheat plants (variety Yuma) were grown from seed in a greenhouse in 50% mineral soil/50% soil-less Metro mix until the first leaf was fully emerged, with 7-10 seedlings per pot. These plants were inoculated with an aqueous spore suspension of Septoria tritici either prior to or after fungicide treatments. After inoculation the plants were kept in 100% relative humidity (one day in a dark dew chamber followed by two to three days in a lighted dew chamber at 20° C.) to permit spores to germinate and infect the leaf. The plants were then transferred to a greenhouse set at 20° C. for disease to develop. When disease symptoms were fully expressed on the 1st leaves of untreated plants, infection levels were assessed on a scale of 0 to 100 percent disease severity. Percent disease control was calculated using the ratio of disease severity on treated plants relative to untreated plants. Evaluation of Fungicidal Activity: Tomato Early Blight (Alternaria solani; Bayer Code […]) Tomato plants (variety Outdoor girl) were propagated in soil-less Metro mix, with each pot having one plant, and used when 12 to 14 days old. Test plants were inoculated with an aqueous spore suspension of Alternaria solani 24 hr after fungicide treatments. After inoculation the plants were kept in 100% relative humidity (one day in a dark dew chamber followed by two to three days in a lighted dew chamber at 20° C.) to permit spores to germinate and infect the leaf. The plants were then transferred to a growth room at 22° C. for disease to develop. Fungicide formulation, application and disease assessment on the sprayed leaves followed the procedures as described in the Example A.

Setting [2] is: 24 h, 1 Day Protectant, read-out: Disease control PUCCRT 1DP.
The mark [3] stands for this setting: 72 h, 3 Day Curative, read-out: Disease control PUCCRT 3DC.
Where [4] appears, read: 24 h, 1 Day Protectant, read-out: Disease control SEPTTR 1DP.
[5] abbreviates: 72 h, 3 Day Curative, read-out: Disease control SEPTTR 3DC.

Where two headings read alike, the source gives them in different places.

Consider `COc1ccnc(C(=O)N[C@H]2COC[C@H](Cc3ccc(F)cc3)[C@@H](OCC(C)C)[C@H](C)OC2=O)c1OC(C)=O` [Compound F60], for which the pest or weed control at 100 ppm (in the assay on Puccinia triticina (setting [2]); in the assay with Puccinia triticina (setting [3]); in assay [1] (setting [4]); in assay [1] (setting [5])) was 80 to 100% throughout. The pest or weed control at 121.5 g/ha (with Puccinia triticina (setting [2]); in the assay with Puccinia triticina (setting [3]); in assay [1] (setting [4]); in assay [1] (setting [5])) was 80 to 100% each time.

Consider `COc1ccnc(C(=O)N[C@H]2COC[C@H](Cc3ccc(Cl)cc3Cl)[C@@H](OC(=O)C(C)C)[C@H](C)OC2=O)c1OC(C)=O` [Compound F73], for which the pest or weed control at 100 ppm with Puccinia triticina (setting [2]) was 80 to 100%; with Puccinia triticina (setting [3]), 80 to 100%; in assay [1] (setting [4]) it was 80 to 100%; in assay [1] (setting [5]), 80 to 100%; in the assay with Alternaria solani, 0 to 80%. For the same compound, the pest or weed control at 121.5 g/ha fell in the range of 80 to 100% in the assay on Puccinia triticina (setting [2]), 0 to 80% in the assay with Puccinia triticina (setting [3]), 80 to 100% in assay [1] (setting [4]) and 80 to 100% in assay [1] (setting [5]).

Take `COc1ccnc(C(=O)N[C@H]2COC[C@H](Cc3ccc(C)cc3)[C@@H](OCC(C)C)[C@H](C)OC2=O)c1OC(C)=O` [Compound F80]: the pest or weed control at 100 ppm (in the assay on Puccinia triticina (setting [2]); in the assay on Puccinia triticina (setting [3]); in assay [1] (setting [4]); in assay [1] (setting [5]); in the assay on Alternaria solani) was 80 to 100% each time. Besides, the pest or weed control at 121.5 g/ha (with Puccinia triticina (setting [2]); with Puccinia triticina (setting [3]); in assay [1] (setting [4]); in assay [1] (setting [5])) was 80 to 100% in each case.

Regarding `COc1ccnc(C(=O)N[C@H]2COC[C@H](CCc3ccccc3)[C@@H](OCC(C)C)[C@H](C)OC2=O)c1OCOC(C)=O` [Compound F82], the pest or weed control at 100 ppm fell in the range of 80 to 100% in the assay with Puccinia triticina (setting [2]); 80 to 100% in the assay with Puccinia triticina (setting [3]); 80 to 100% in assay [1] (setting [4]); 80 to 100% in assay [1] (setting [5]); 0 to 80% with Alternaria solani. In addition, the pest or weed control at 121.5 g/ha (in the assay with Puccinia triticina (setting [2]); in the assay with Puccinia triticina (setting [3]); in assay [1] (setting [4]); in assay [1] (setting [5])) was 80 to 100% in each case.

Regarding `COc1ccnc(C(=O)N[C@H]2COC[C@H](Cc3cccc4ccccc34)[C@@H](OC(=O)C(C)C)[C@H](C)OC2=O)c1OCOC(C)=O` [Compound F83, (3S,6S,7R,8S)-3-(3-(acetoxymethoxy)-4-methoxypicolin-amido)-6-methyl-8-(naphthalen-1-ylmethyl)-4-oxo-1,5-dioxonan-7-yl isobutyrate], the pest or weed control at 100 ppm (in the assay on Puccinia triticina (setting [2]); with Puccinia triticina (setting [3]); in assay [1] (setting [4]); in assay [1] (setting [5])) was 80 to 100% in each case. Also, the pest or weed control at 121.5 g/ha in the assay on Puccinia triticina (setting [2]) was in the range of 80 to 100%; in the assay with Puccinia triticina (setting [3]) it was 0 to 80%; in assay [1] (setting [4]), 0 to 80%; in assay [1] (setting [5]), 80 to 100%.

For `COc1ccnc(C(=O)N[C@H]2COC[C@H](Cc3ccc(F)cc3)[C@@H](OCC(C)C)[C@H](C)OC2=O)c1OCOC(C)=O` [Compound F96], the pest or weed control at 100 ppm (in the assay with Puccinia triticina (setting [2]); in the assay with Puccinia triticina (setting [3]); in assay [1] (setting [4]); in assay [1] (setting [5]); in the assay on Alternaria solani) was 80 to 100% throughout. Moreover, the pest or weed control at 121.5 g/ha (with Puccinia triticina (setting [2]); with Puccinia triticina (setting [3]); in assay [1] (setting [4]); in assay [1] (setting [5])) was 80 to 100% each time.

As to `COc1ccnc(C(=O)N[C@H]2COC[C@H](CC(F)(F)F)[C@@H](OC3CCCC3)[C@H](C)OC2=O)c1OCOC(C)=O` [Compound F105], the pest or weed control at 100 ppm in the assay with Puccinia triticina (setting [2]) was in the range of 80 to 100%; in the assay with Puccinia triticina (setting [3]) it was 80 to 100%; in assay [1] (setting [4]), 80 to 100%; in assay [1] (setting [5]), 80 to 100%; in the assay on Alternaria solani it was 0 to 80%. Further, the pest or weed control at 121.5 g/ha (in the assay with Puccinia triticina (setting [2]); with Puccinia triticina (setting [3]); in assay [1] (setting [4]); in assay [1] (setting [5])) was 80 to 100% throughout.

Consider `COc1ccnc(C(=O)N[C@H]2COC[C@H](CCC(C)C)[C@@H](OCCCC(F)(F)F)[C@H](C)OC2=O)c1OCOC(C)=O` [Compound F107], for which the pest or weed control at 100 ppm (with Puccinia triticina (setting [2]); with Puccinia triticina (setting [3]); in assay [1] (setting [4]); in assay [1] (setting [5]); in the assay with Alternaria solani) was 80 to 100% in each case. The pest or weed control at 121.5 g/ha (in the assay with Puccinia triticina (setting [2]); in the assay on Puccinia triticina (setting [3]); in assay [1] (setting [4]); in assay [1] (setting [5])) was 80 to 100% throughout.

In the case of `COc1ccnc(C(=O)N[C@H]2COC[C@H](CCC(C)C)[C@@H](OC(=O)C3CC3)[C@H](C)OC2=O)c1OCOC(C)=O` [Compound F108], the pest or weed control at 100 ppm (with Puccinia triticina (setting [2]); in the assay with Puccinia triticina (setting [3]); in assay [1] (setting [4]); in assay [1] (setting [5]); with Alternaria solani) was 80 to 100% throughout. Also, the pest or weed control at 121.5 g/ha (in the assay on Puccinia triticina (setting [2]); in the assay with Puccinia triticina (setting [3]); in assay [1] (setting [4]); in assay [1] (setting [5])) was 80 to 100% each time.

In the case of `COc1ccnc(C(=O)N[C@H]2COC[C@H](Cc3ccc(Cl)cc3Cl)[C@@H](OC(=O)C(C)C)[C@H](C)OC2=O)c1OCOC(C)=O` [Compound F110], the pest or weed control at 100 ppm (in the assay on Puccinia triticina (setting [2]); in the assay on Puccinia triticina (setting [3]); in assay [1] (setting [4]); in assay [1] (setting [5]); in the assay on Alternaria solani) was 80 to 100% throughout. Besides, the pest or weed control at 121.5 g/ha is 80 to 100% in the assay with Puccinia triticina (setting [2]), 0 to 80% in the assay on Puccinia triticina (setting [3]), 80 to 100% in assay [1] (setting [4]) and 80 to 100% in assay [1] (setting [5]).

`COc1ccnc(C(=O)N[C@H]2COC[C@H](CC3CCCC3)[C@@H](OC(=O)C(C)C)[C@H](C)OC2=O)c1OCOC(C)=O` [Compound F114]: the pest or weed control at 100 ppm (in the assay with Puccinia triticina (setting [2]); with Puccinia triticina (setting [3]); in assay [1] (setting [4]); in assay [1] (setting [5]); in the assay with Alternaria solani) was 80 to 100% throughout. In addition, the pest or weed control at 121.5 g/ha (with Puccinia triticina (setting [2]); in the assay on Puccinia triticina (setting [3]); in assay [1] (setting [4]); in assay [1] (setting [5])) was 80 to 100% throughout.

On to `COc1ccnc(C(=O)N[C@H]2COC[C@H](Cc3ccc(C)cc3)[C@@H](OCC(C)C)[C@H](C)OC2=O)c1OCOC(C)=O` [Compound F117], for which the pest or weed control at 100 ppm (in the assay with Puccinia triticina (setting [2]); in the assay with Puccinia triticina (setting [3]); in assay [1] (setting [4]); in assay [1] (setting [5]); in the assay with Alternaria solani) was 80 to 100% in each case. The pest or weed control at 121.5 g/ha (in the assay on Puccinia triticina (setting [2]); in the assay on Puccinia triticina (setting [3]); in assay [1] (setting [4]); in assay [1] (setting [5])) was 80 to 100% each time.

`CCCCCO[C@@H]1[C@@H](Cc2ccc(Cl)cc2Cl)COC[C@H](NC(=O)c2nccc(OC)c2OCOC(=O)COCC)C(=O)O[C@H]1C` [Compound F122]: the pest or weed control at 121.5 g/ha lay in the range of 80 to 100% in the assay with Puccinia triticina (setting [2]), 0 to 80% in the assay on Puccinia triticina (setting [3]) and 80 to 100% in assay [1] (setting [4]). In the assay on Alternaria solani, the pest or weed control at 100 ppm lay in the range of 80 to 100%.
